Measured values published in PMC9414302, “UPLC-ESI-QTRAP-MS/MS Analysis to Quantify Bioactive Compounds in Fennel (Foeniculum vulgare Mill.) Waste with Potential Anti-Inflammatory Activity” (Metabolites, 2022).
Like-named read-outs stand apart in the source and are kept apart here.

How the values were obtained:
COX-2 = target: T1, COX-2 (Homo sapiens, UniProt P35354); assay: COX inhibitor screening fluorometric assay (COX-2); format: biochemical
T1 construct: purchased Cayman Chemicals 700100
T1 sequence (P35354 18-604): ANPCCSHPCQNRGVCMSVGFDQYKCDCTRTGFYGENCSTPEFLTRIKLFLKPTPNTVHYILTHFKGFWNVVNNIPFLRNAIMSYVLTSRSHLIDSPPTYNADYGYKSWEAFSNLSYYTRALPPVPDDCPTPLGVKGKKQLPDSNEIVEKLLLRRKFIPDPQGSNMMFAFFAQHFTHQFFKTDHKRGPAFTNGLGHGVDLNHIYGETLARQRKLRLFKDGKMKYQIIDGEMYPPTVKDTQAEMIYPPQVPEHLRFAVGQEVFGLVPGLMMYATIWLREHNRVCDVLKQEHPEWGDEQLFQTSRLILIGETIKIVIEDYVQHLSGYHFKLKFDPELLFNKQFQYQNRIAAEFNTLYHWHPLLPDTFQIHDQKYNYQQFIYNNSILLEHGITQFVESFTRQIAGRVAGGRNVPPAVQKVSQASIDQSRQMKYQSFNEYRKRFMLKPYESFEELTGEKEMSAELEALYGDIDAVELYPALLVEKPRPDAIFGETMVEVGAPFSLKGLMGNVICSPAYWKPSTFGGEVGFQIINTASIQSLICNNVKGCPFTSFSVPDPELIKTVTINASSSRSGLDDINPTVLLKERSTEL
Protocol: (§1) Anti-inflammatory activity was evaluated determining the capacity of some major metabolites of F. vulgare to inhibit the cyclooxygenase activity (COX). […] The assay uses the peroxidase component of COXs. The reaction between PGG2 and ADHP creates resorufin, a highly fluorescent compound. […] The inhibition of COXs is directly proportional to the reduction of resorufin fluorescence.
(§2) The analyses were made in triplicate and the results are expressed as the mean of the IC50 (µM) ± the standard deviation.

COX-1 = target: T2, COX-1 (Ovis aries, UniProt P05979); assay: COX inhibitor screening fluorometric assay (COX-1); format: biochemical
T2 construct: purchased Cayman Chemicals 700100
T2 sequence (P05979 25-600): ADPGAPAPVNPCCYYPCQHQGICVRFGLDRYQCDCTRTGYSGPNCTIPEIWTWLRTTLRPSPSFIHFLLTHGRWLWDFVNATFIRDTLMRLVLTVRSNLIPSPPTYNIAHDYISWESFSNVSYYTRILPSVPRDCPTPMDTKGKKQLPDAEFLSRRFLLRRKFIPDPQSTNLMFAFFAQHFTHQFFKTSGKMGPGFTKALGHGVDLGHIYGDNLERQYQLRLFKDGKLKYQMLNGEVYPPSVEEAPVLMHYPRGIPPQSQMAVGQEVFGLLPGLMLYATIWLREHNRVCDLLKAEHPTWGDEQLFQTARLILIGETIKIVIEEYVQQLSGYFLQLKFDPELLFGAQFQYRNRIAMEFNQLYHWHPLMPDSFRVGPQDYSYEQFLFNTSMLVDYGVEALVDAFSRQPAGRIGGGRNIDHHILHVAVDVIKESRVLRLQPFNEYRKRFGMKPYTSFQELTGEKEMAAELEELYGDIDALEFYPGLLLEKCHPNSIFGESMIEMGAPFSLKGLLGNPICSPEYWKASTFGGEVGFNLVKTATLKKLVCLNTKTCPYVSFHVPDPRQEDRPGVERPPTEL
Protocol: as §1, §2

[1] = fluorometric assay (resorufin, ex 535 nm / em 590 nm), mean of three determinations ± SD, metabolites tested at 25, 50, 100 and 150 µM, SC-560 at 2, 4, 8 and 10 nM

IC50 (COX-1; [1]) | Structure (SMILES) | IC50 (COX-2) | IC50 (COX-1)
– | O=C(/C=C/c1ccc(O)c(O)c1)OC1C(O)CC(OC(=O)/C=C/c2ccc(O)c(O)c2)(C(=O)O)CC1O (stereo not drawn) [Dicaffeoylquinic acid, dicaffeoylquinic acid] | 14.8 ± 2.39 µM | 85.6 ± 10.9 µM
94.7 ± 1.22 µM | COc1cc(-c2oc3cc(O)cc(O)c3c(=O)c2OC2OC(C(=O)O)C(O)C(O)C2O)ccc1O (stereo not drawn) [Isorhamnetin glucuronide, isorhamnetin glucuronide] | – | –
228 ± 16.8 µM | O=C(O)C1OC(Oc2c(-c3ccc(O)cc3)oc3cc(O)cc(O)c3c2=O)C(O)C(O)C1O (stereo not drawn) [Kaempferol glucuronide, kaempferol glucuronide] | – | –
– | O=c1c(O[C@@H]2O[C@H](CO)[C@@H](O)[C@H](O)[C@H]2O)c(-c2ccc(O)c(O)c2)oc2cc(O)cc(O)c12 [Quercetin glucoside, quercetin glucoside] | – | 103 ± 8.66 µM
571 ± 40 µM | O=C(O)[C@H]1O[C@@H](Oc2c(-c3ccc(O)c(O)c3)oc3cc(O)cc(O)c3c2=O)[C@H](O)[C@@H](O)[C@@H]1O [Quercetin glucuronide, quercetin glucuronide] | – | –
